According to BigSolDB 2.1:

O=Cc1cc(Br)c(O)c(Br)c1
solubility (mole fraction)
Settings | 278.15 K | 283.15 K | 288.15 K | 293.15 K | 298.15 K | 303.15 K | 308.15 K | 313.15 K | 318.15 K | 323.15 K
in 1,4-dioxane | – | – | 0.0128 | 0.0143 | 0.0161 | 0.0183 | 0.0208 | 0.0236 | 0.0266 | 0.03
in DMF | 0.00805 | 0.00912 | 0.0104 | 0.012 | 0.0137 | 0.0157 | 0.0178 | 0.0201 | 0.0225 | 0.0251
in DMSO | – | – | – | 0.00895 | 0.0101 | 0.0115 | 0.0132 | 0.0152 | 0.0174 | 0.0203
in acetonitrile | 0.002 | 0.00233 | 0.00277 | 0.00328 | 0.00383 | 0.00452 | 0.00531 | 0.00621 | 0.00734 | 0.0086
in cyclohexane | – | 0.000245 | 0.000317 | 0.000408 | 0.000513 | 0.000637 | 0.000791 | 0.000965 | 0.00116 | 0.00139
in ethanol | 0.00281 | 0.00314 | 0.00358 | 0.00413 | 0.00477 | 0.00555 | 0.00646 | 0.00742 | 0.00851 | 0.00974
in ethyl acetate | 0.0055 | 0.00634 | 0.00729 | 0.00845 | 0.0098 | 0.0114 | 0.0131 | 0.015 | 0.0171 | 0.0194
in ethylene glycol | 0.00234 | 0.00274 | 0.00327 | 0.00397 | 0.00476 | 0.00571 | 0.00675 | 0.00796 | 0.00923 | 0.0107
in isobutanol | 0.00368 | 0.00422 | 0.0049 | 0.00569 | 0.00659 | 0.00762 | 0.00878 | 0.01 | 0.0115 | 0.0132
in isopropanol | 0.003 | 0.00343 | 0.00399 | 0.00467 | 0.00542 | 0.00629 | 0.00731 | 0.00841 | 0.00966 | 0.011
in methanol | 0.00195 | 0.0022 | 0.00252 | 0.00294 | 0.00341 | 0.00395 | 0.00457 | 0.00526 | 0.00604 | 0.00689
in n-butanol | 0.00412 | 0.00466 | 0.00539 | 0.00624 | 0.00726 | 0.00846 | 0.0098 | 0.0112 | 0.0128 | 0.0147
in n-octanol | 0.00788 | 0.00908 | 0.0105 | 0.0121 | 0.0139 | 0.016 | 0.0184 | 0.021 | 0.024 | 0.0275
in n-pentanol | 0.00662 | 0.00744 | 0.00859 | 0.0101 | 0.0116 | 0.0135 | 0.0155 | 0.0176 | 0.02 | 0.0226
in n-propanol | 0.00339 | 0.00379 | 0.00434 | 0.00499 | 0.00579 | 0.0067 | 0.00779 | 0.00897 | 0.0103 | 0.0118
in water | 4.91e-05 | 6.34e-05 | 8.16e-05 | 0.000103 | 0.000131 | 0.000167 | 0.000213 | 0.000267 | 0.000332 | 0.000406
